Assay [1] relates to General amino-acid permease GAP1 (Saccharomyces cerevisiae), P19145 [S388C]. Put plainly: Induction of yeast Gap1 S388C mutant-mediated amino acid uptake at 2 mM in presence of 10 mM MTSEA treated before compound addition.
Assay [2] deals with T1, General amino-acid permease GAP1 (Saccharomyces cerevisiae), P19145 [I382C].
T1 sequence (whole entry): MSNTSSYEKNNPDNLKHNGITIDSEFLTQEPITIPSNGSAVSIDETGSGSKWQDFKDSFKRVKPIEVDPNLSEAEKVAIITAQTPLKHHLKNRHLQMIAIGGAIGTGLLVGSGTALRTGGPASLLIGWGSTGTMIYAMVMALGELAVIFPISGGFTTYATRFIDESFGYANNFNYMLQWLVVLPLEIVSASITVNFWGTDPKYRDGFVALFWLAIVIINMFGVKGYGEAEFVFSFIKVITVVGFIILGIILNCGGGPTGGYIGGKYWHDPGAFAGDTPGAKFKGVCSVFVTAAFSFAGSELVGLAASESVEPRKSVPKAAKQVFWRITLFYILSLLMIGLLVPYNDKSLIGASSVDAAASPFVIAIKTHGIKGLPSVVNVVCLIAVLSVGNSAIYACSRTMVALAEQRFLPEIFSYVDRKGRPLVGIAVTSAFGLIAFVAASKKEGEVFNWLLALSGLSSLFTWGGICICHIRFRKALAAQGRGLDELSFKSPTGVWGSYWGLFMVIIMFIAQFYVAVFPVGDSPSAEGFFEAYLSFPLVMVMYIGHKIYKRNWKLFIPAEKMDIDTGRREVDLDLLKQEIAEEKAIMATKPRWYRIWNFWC
As to the kind of experiment: Induction of yeast Gap1 I382C mutant-mediated trehalose activation at 2 mM in presence of 10 mM MTSEA treated before compound addition.

Assay [3] has as its system Saccharomyces cerevisiae. As to the kind of experiment: Induction of yeast Gap1 L404 mutant-mediated trehalose activation at 2 mM in presence of 10 mM MTSEA treated before compound addition.
The test system of assay [4] is T1, General amino-acid permease GAP1 (Saccharomyces cerevisiae), P19145 [I382C]. As to the kind of experiment: Induction of yeast Gap1 I382C mutant-mediated amino acid uptake at 2 mM in presence of 10 mM MTSEA treated before compound addition.
Assay [5] deals with T2, General amino-acid permease GAP1 (Saccharomyces cerevisiae), P19145 [M401C].
T2 sequence (whole entry): T1 sequence (whole entry) with C382I, M401C
As to the kind of experiment: Induction of yeast Gap1 M401C mutant-mediated trehalose activation at 2 mM in presence of 10 mM MTSEA treated before compound addition.

The test system of assay [6] is General amino-acid permease GAP1 (Saccharomyces cerevisiae), P19145 [Y395C]. Put plainly: Inhibition of yeast Gap1 Y395C mutant-mediated trehalose activation at 10 mM.
Assay [7] concerns T3, General amino-acid permease GAP1 (Saccharomyces cerevisiae), P19145 [L383C].
T3 sequence (whole entry): T1 sequence (whole entry) with C382I, L383C
Put plainly: Activation of yeast Gap1 L383C mutant-mediated amino acid uptake at 10 mM.

Assay [8] has the same test system. As to the kind of experiment: Induction of yeast Gap1 L383C mutant-mediated trehalose activation at 10 mM.
Assay [9] concerns Saccharomyces cerevisiae. Put plainly: Induction of yeast Gap1 L404 mutant-mediated amino acid uptake at 2 mM in presence of 10 mM MTSEA treated before compound addition.
Assay [10] relates to T4, General amino-acid permease GAP1 (Saccharomyces cerevisiae), P19145 [G390C].
T4 sequence (whole entry): T1 sequence (whole entry) with C382I, G390C
Put plainly: Induction of yeast Gap1 G390C mutant-mediated trehalose activation at 2 mM in presence of 10 mM MTSEA treated before compound addition.

Drawing on ChEMBL document CHEMBL1221220, “Transport and signaling via the amino acid binding site of the yeast Gap1 amino acid transceptor” (Nat Chem Biol, 2009), this text covers inhibition and Activity for 1 compound.

Changes are numbered by the printed parent chain. The source made the active and inactive calls. No cut-off for these calls is given here.

Sequence of General amino-acid permease GAP1 (Saccharomyces cerevisiae), P19145 [Y395C] (P19145 whole entry Y395C): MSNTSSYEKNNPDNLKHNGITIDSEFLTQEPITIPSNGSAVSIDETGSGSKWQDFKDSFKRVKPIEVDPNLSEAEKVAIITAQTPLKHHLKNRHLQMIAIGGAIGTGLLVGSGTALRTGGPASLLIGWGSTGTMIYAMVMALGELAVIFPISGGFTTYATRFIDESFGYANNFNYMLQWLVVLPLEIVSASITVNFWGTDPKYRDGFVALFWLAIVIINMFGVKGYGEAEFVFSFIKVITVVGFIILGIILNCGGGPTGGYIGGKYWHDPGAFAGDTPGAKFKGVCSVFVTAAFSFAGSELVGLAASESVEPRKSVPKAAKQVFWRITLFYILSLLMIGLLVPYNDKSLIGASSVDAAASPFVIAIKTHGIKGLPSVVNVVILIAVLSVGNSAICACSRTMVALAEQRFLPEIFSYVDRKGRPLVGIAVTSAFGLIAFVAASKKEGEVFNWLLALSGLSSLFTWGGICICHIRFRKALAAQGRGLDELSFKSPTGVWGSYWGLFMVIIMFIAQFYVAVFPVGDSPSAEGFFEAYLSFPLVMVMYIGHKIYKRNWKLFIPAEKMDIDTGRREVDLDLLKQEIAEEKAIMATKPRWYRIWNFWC
Sequence of General amino-acid permease GAP1 (Saccharomyces cerevisiae), P19145 [S388C] (P19145 whole entry S388C): as the sequence (P19145 whole entry Y395C) above, with S388C, C395Y counted along it

Take `NC(=O)NCCC[C@H](N)C(=O)O`: in [1], the inhibition result is “inactive”. Besides, the inhibition result in assay [2], in assay [3], in assay [5], in [6] and in assay [10] was “Active” in each case. Moreover, the outcome in [4] and in [9] was Active. The outcome in [7] and in assay [8] was inactive.
